Where a name gives a salt, the structure may show the parent alone.
How the values were obtained:
[1] = Hygroscopicity of the crystals; type: physicochemical
[2] = Recrystallization from various organic solvents, crystalline form by XRPD; type: physicochemical; details: XRPD analysis
Text: The process for the preparation of novel tiotropium salts with 10-camphorsulphonic acid and with single optical isomers thereof as well as monohydrates of the salts according to the present invention allows to obtain the desired product as stable, non-hygroscopic crystals, with high yield and with purity acceptable for being used in pharmaceutical compositions. Stability of crystalline anhydrous tiotropium salts with 1R-(−)-10-camphorsulphonic and 1S-(+)-10-camphorsulphonic acids was confirmed experimentally. […] Therefore, no transformation or modification of a crystalline salt takes place.
XRPD patterns were obtained using Rigaku MiniFlex X-ray diffractometer, with Cu Kα radiation, filter Kβ. Lamps parameters were set at 30 kV and 15 mA. Divergence and scattering slits were set at 4.2°, and a receiving slit was set at 0.3 mm. Deflection of rays was detected with scintillation detector NaI. The θ/2θ continuous scan at 1°/min with a step of 0.02° from 2.0 to 40° 2θ was used. The samples were prepared by pressing the solid in a quartz holder.

Compound	hygroscopicity [1]	crystalline form after recrystallization [2]
CC1(C)C2CC[C@]1(CS(=O)(=O)[O-])C(=O)C2.C[N+]1(C)C2CC(OC(=O)C(O)(c3cccs3)c3cccs3)CC1C1OC12.O (stereo not drawn) [Crystalline monohydrate of tiotropium salt with 1R-(−)-10-camphorsulphonic acid]	non-hygroscopic	
CC1(C)C2CC[C@@]1(CS(=O)(=O)[O-])C(=O)C2.C[N+]1(C)C2CC(OC(=O)C(O)(c3cccs3)c3cccs3)CC1C1OC12.O (stereo not drawn) [Crystalline monohydrate of tiotropium salt with 1S-(+)-10-camphorsulphonic acid]	non-hygroscopic	
C[N+]1(C)C2CC(OC(=O)C(O)(c3cccs3)c3cccs3)CC1C1OC12 (stereo not drawn) [Tiotropium salt with 1R-(−)-10-camphorsul-phonic acid, anhyd] [Tiotropium salt with 1R-(−)-10-camphorsulphonic acid (anhydrous)]		initial crystalline form
C[N+]1(C)C2CC(OC(=O)C(O)(c3cccs3)c3cccs3)CC1C1OC12 (stereo not drawn) [Tiotropium salt with 1S-(+)-10-camphorsul-phonic acid, anhyd] [Tiotropium salt with 1S-(+)-10-camphorsulphonic acid (anhydrous)]		initial crystalline form

From patent US20120065226A1, “SALTS OF […] 10-CAMPH[…]” (ADAMED SP Z O.O., priority 2009, published 2012)
